From BindingDB's records for doi:10.1021/cb900264w (The Weizmann Institute of Science, 2010) come the findings set out here.

The target in experiment [1] is T1, Amine oxidase [flavin-containing] B (Rattus norvegicus, UniProt P19643).
T1 sequence (P19643 whole entry): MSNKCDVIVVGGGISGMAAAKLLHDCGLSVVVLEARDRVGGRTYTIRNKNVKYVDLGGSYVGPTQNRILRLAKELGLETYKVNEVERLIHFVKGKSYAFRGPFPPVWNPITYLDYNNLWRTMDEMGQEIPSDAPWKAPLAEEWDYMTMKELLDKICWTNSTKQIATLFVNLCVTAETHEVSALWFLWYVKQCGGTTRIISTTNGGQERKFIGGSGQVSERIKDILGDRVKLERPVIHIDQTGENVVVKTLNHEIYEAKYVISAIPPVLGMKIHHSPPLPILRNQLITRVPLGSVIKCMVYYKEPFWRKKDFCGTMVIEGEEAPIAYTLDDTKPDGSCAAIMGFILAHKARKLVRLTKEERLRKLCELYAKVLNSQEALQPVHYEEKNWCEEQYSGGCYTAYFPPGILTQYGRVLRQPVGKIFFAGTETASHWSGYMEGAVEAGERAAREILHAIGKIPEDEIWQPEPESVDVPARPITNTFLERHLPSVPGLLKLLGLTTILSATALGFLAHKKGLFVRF
As to the kind of experiment: Enzyme Inhibition Assay. To be noted: pH 7.4; 37 °C. The text has this: (§1) Inhibition of MAO activity in rat brain homogenates.

In experiment [2] the target is T2, Amine oxidase [flavin-containing] A (Rattus norvegicus, UniProt P21396).
T2 sequence (P21396 whole entry): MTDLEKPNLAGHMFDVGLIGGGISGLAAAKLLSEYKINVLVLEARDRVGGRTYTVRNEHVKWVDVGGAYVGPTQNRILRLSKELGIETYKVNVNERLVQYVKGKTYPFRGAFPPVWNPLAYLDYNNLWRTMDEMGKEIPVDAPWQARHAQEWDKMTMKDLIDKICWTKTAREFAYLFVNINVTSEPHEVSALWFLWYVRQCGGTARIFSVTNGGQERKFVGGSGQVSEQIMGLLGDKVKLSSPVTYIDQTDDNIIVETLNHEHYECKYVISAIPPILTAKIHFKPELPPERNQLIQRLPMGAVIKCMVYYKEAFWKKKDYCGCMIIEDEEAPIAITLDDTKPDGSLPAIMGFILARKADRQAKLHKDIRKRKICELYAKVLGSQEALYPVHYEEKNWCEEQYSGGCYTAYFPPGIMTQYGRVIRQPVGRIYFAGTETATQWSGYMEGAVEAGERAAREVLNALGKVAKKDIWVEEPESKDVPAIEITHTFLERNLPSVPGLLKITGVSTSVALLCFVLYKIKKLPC
Briefly: Enzyme Inhibition Assay. To be noted: pH 7.4; 37 °C.
Source text: as §1

What is called IC50 is the concentration that inhibits the measured activity by half. Read a high IC50 as lower potency.

`C#CCN(C)Cc1ccc(O)c2ncccc12` [Chelator, M30] gave an IC50 in experiment [1] of 37 nM.

As for `C#CCN(C)Cc1ccc(OC(=O)N(C)C)c2ncccc12` [Prochelators, 2], the IC50 in experiment [2] came out at 7.7 nM; in experiment [1] it was 7900 nM.

The compound `C#CCN(C)Cc1ccc(OC(=O)N(C)CC)c2ncccc12` [Prochelators, 3] returned an IC50 in experiment [2] of 9.6 nM.
